Results taken from patent US7385086B2 (priority 1997, dated 2008).
≈ marks a conversion by molar mass, not a printed value. Read-outs that look alike come from different tables or passages of the source.

Experiments:
[1] = test system: M. tuberculosis (strain H37Rv); assay: MIC against M. tuberculosis strain H37Rv; assay type: cell-based; conditions: Mycobacterium tuberculosis
M. avium-intracellulare = assay: MIC / growth inhibition against M. avium-intracellulare; assay type: cell-based, Mycobacterium avium-intracellulare
[2] = test system: mycolic acid synthesis in M. avium-intracellulare; assay: Metabolic labeling, two-dimensional TLC of mycolic acids, M. avium-intracellulare; assay type: cell-based, Mycobacterium avium-intracellulare; conditions: M. avium-intracellulare cultures treated with 12.5 μg/ml
M. bovis BCG = assay: microbe, parasite or virus in culture; assay type: cell-based; conditions: Mycobacterium tuberculosis variant bovis BCG
[3] = test system: mycolic acid synthesis in M. bovis BCG; assay type: cell-based, Mycobacterium bovis; conditions: M. bovis BCG in the presence of III-50
M. bovis BCG cell wall = assay type: cell-based, Mycobacterium bovis; conditions: dividing M. bovis BCG in the presence of III-50
[4] = M. tuberculosis strain H37Rv, in vitro, read-out: MIC MTB
[5] = M. avium-intracellulare, routinely isoniazid resistant
[6] = Mycobacterium avium-intracellulare, M. avium-intracellulare, in vitro, read-out: MIC MAI

SMILES | MIC [1, 4] [µg/mL] | also measured
CCCCCCCCCCS(=O)(=O)CC(=O)NCC(O)CO (stereo not shown) [SI-48] | > 25 | 
CCCCCCCCCCS(=O)(=O)C=CC(N)=O [JRG-I-89-3] | 6.25 (≈ 22.7 µM) | 
CCCCCCCCS(=O)(=O)CC(N)=O [HIII-50, n-Octanesulphonylacetamide] | 6.25 (≈ 26.6 µM) | MIC ([1]; H37RV): 6.5 µg/mL (≈ 27.6 µM); growth inhibition (M. avium-intracellulare; [5]): inhibits; MIC (M. avium-intracellulare; [6]): 25 µg/mL (≈ 106 µM); mycolic acids by phosphorimage of 2D TLC [2]: undetectable; MIC (M. bovis BCG): 6.25 µg/mL (≈ 26.6 µM); MIC (M. bovis BCG; read-out: MIC BCG): 6.25 µg/mL (≈ 26.6 µM); mycolic acids by phosphorimage of 2D TLC [3]: significantly reduced; cell wall morphology in electron micrographs (M. bovis BCG cell wall): disruption of the cell wall
CCCCCCCCS(=O)(=O)CC(=O)OCc1ccccc1 [HIII-206b] | 12.5 (≈ 38.3 µM) | 
CCCCCCCCCC[S+]([O-])CC(N)=O (stereo not shown) [SI-46] | 6.25 (≈ 25.3 µM) | 
CCCCCCCC[S+]([O-])CC(=O)OCc1ccccc1 (stereo not shown) [HIII-206a] | 6.25 (≈ 20.1 µM) | 
CCCCCCCCCCS(=O)(=O)/C=C/C(N)=O [JRG-I-89-2] | 12.5 (≈ 45.4 µM) | 
CCCCCCCCCCS(=O)(=O)CC(=O)NCCO [SI-45] | 12.5 (≈ 40.7 µM) | MIC (M. bovis BCG; read-out: MIC BCG): 25 µg/mL (≈ 81.3 µM)
CCCCCCCCCCS(=O)(=O)CC(N)=O [SI-73] | 3.12 (≈ 11.8 µM) | MIC ([1]; H37RV): 3.12 µg/mL (≈ 11.8 µM); MIC (M. avium-intracellulare; [6]): 12.5 µg/mL (≈ 47.5 µM); MIC (M. avium-intracellulare; dose-response curves, M. avium-intracellular): 12.50 µg/mL (≈ 47.5 µM)
CCCCCCCCCCS(=O)(=O)/C=C/C(=O)OC [JRG-I-31] |  | melting point: 62 to 63 °C
CCCCCCCCCCS(=O)(=O)/C=C/C(=O)O [JRG-I-43] | 50 (≈ 181 µM) | 
CCCCCCCC[S+]([O-])CC(=O)OC (stereo not shown) [HIII-302] | > 25 | 
CCCCCCCCCCS(=O)(=O)/C=C\C(N)=O [JRG-I-89-1] | 25 (≈ 90.8 µM) | 
CCCCCCCCCCS(=O)(=O)C=CC(=O)OC (mixture of isomers) [JRG-I-31(mixture of cisand trans)] | 50 | 
CCCCCCCCCCS(=O)(=O)CCC(N)=O [DI-59] | > 25 | 
CCCCCCCCS(=O)(=O)NCC(=O)O [HIII-56] | > 25 | MIC (M. bovis BCG; read-out: MIC BCG): > 25 µg/mL
NNC(=O)c1ccncc1 [isoniazid, reference compound] |  | isoniazid resistance level (M. avium-intracellulare; [5]): > 2.5 µg/mL
CC(C)CCCC(C)CCS(=O)(=O)CC(N)=O (stereo not shown) [SI-52] | 6.25 (≈ 23.7 µM) | 
